Assay results published in patent US20100311642A1, “USE OF V2 RECEPTOR ANTAGONISTS IN COMBINATION WITH VASO PRESSINERGIC AGNOSTS” (Ferring B.V., priority 2007, published 2010).
pEC50, pKi: −log10 of the molar value. Entries after “also recorded” stand apart in the source; their conditions may differ. Positions of bridges follow the written chain, without caps; N, C: chain ends. Residues, ends and D or L forms follow the SMILES beside them.

Columns and labels:
[1] = target: T1, human V2 receptor (hV2R) (Homo sapiens, UniProt P30518); test: Antagonist transcriptional reporter gene assay, human V2 receptor; type: cell-based; details: hV2, HEK-293 reporter gene, vs AVP
T1 construct: expressed in transfected cells; host or cells: HEK-293
Description: (§1) Agonist activity of compounds on the human V2 receptor (hV2R) and the rat V2 receptor (rV2R) was determined in a transcriptional reporter gene assay in which HEK-293 cells were transiently transfected with either the human or rat V2 receptor, and a reporter DNA containing cyclic-AMP responsive promoter elements regulating expression of firefly luciferase. See Castarion, M. J., Spevak, W., Biochem Biophys Res Commun.1994 Jan.
(§2) Antagonist activity of compounds on the human V2 receptor (hV2R) and the rat V2 receptor (rV2R) was determined in a transcriptional reporter gene assay as in section III.A; see Castañón, M. J. et al. supra. […] Ki values were calculated from IC50 values.

[2] = target: T2, human V1a receptor (hV1aR) (Homo sapiens, UniProt P37288); test: Antagonist transcriptional reporter gene assay, human V1a receptor; type: cell-based; details: hV1a, HEK-293 reporter gene, vs AVP
T2 construct: expressed in transfected cells; host or cells: HEK-293
Description: (§3) Agonist activity of compounds on the human V1a receptor (hV1aR) and the rat V1a receptor (rV 1 aR) was determined in a transcriptional reporter gene assay in which HEK-293 cells were transiently co-transfected with either the human or rat V1a receptor, and a reporter DNA containing intracellular calcium responsive promoter elements regulating expression of firefly luciferase.
(§4) Antagonist activity of compounds on the human V1a receptor (hV1aR) and the rat V1a receptor (rV 1 aR) was determined in a transcriptional reporter gene assay as in section III.A; see Boss, V. et al. supra. […] Ki values were calculated from IC50 values.

[3] = target: T3, rat V2 receptor (rV2R) (Rattus norvegicus, UniProt Q00788); test: Antagonist transcriptional reporter gene assay, rat V2 receptor; type: cell-based; details: rV2, HEK-293 reporter gene, vs AVP; for pKi: Ki calculated from IC50, read-out: Geomean Ki
T3 construct: expressed in transfected cells; host or cells: HEK-293
Description: as §1, §2

[4] = target: T4, rat V1a receptor (rV1aR) (Rattus norvegicus, UniProt P30560); test: Antagonist transcriptional reporter gene assay, rat V1a receptor; type: cell-based; details: rV1a, HEK-293 reporter gene, vs AVP; for pKi: Ki calculated from IC50, read-out: Geomean Ki
T4 construct: expressed in transfected cells; host or cells: HEK-293
Description: as §3, §4

[5] = test system: sheep model of sepsis; test: Sheep model of sepsis (smoke inhalation + Pseudomonas aeruginosa); type: in vivo; details: septic sheep, continuous i.v. infusion titrated, 24 hours
Source text: A. Description of Model & Experimental Design • Septic shock is caused by hypotension secondary to vasodilation. […] The combination of a selective V2 receptor agonist, desmopressin, and a selective V1a receptor agonist models to some extent the non-selective V1a/V2 receptor agonist activity of vasopressin and other related compounds having non-selective activity.
Method: Sheep are surgically instrumented ahead of the study. After obtaining baseline data, they are anesthetized and insufflated with 48 breaths of cotton smoke and 10^11 colony forming units of Pseudomonas aeruginosa instilled into their airways via a tracheostomy. The sheep are then placed on a ventilator and awakened for the study. They are resuscitated with Ringer's solution to maintain left atrial and central venous pressures and hematocrit at baseline levels. If, despite fluid management, mean arterial pressure (MAP) falls by 10 mm Hg from baseline, a continuous intravenous infusion of AVP, the selective V1a receptor agonist, or the selective V1a receptor agonist+the selective V2 agonist desmopressin is initiated and titrated to keep MAP within this limit, except in a septic control group and in a non-septic sham group. Parameters measured include Mean Arterial Pressure (a measure of vasodilation/hypotension) and Fluid Balance (a measure of vascular leak).
Additional information about sepsis model and method available in Murakami K, Bjertnaes L T, Schmalstieg F C, McGuire R, Cox R A, Hawkins H K, Herndon D N, Traber L D, Traber D L (2002): A novel animal model of sepsis after acute lung injury in sheep. Crit. Care Med, 30:2083-2090.

[6] = test system: venular microvessels in rat mesentery; test: Rat mesenteric post-capillary venule permeability (hydraulic conductivity Lp, PAF); details: PAF 10 nM
Description: We tested the hypothesis that the selective V2 receptor agonist desmopressin would potentiate the increase in microvessel permeability induced by platelet activating factor [PAF], an inflammatory mediator involved in sepsis.
Method: Individual venular microvessels in rat mesentery were cannulated and perfused with mammalian Ringer containing 10 mg/ml albumin to measure hydraulic conductivity (Lp) by the modified Landis technique. The vessels were then exposed to PAF (10 nM) with monitoring of hydraulic conductivity (Lp). The same vessels are then exposed to a selective V2 receptor agonist, desmopressin, followed by a second exposure to PAF with monitoring of hydraulic conductivity (Lp).
Additional information about microvascular permeability model and method available in Curry, FE, “The Measurement of Hydraulic Conductivity”, Microcirculatory Technology, Academic Press, 1986, pp 429-446.

[7] = target: T1, human V2 receptor (hV2R); test: Agonist transcriptional reporter gene assay, human V2 receptor; type: cell-based; details: hV2, HEK-293 reporter gene; for pEC50: 5 hours
[8] = target: T2, human V1a receptor (hV1aR); test: Agonist transcriptional reporter gene assay, human V1a receptor; type: cell-based; details: hV1a, HEK-293 reporter gene; for pEC50: 5 hours
[9] = target: T3, rat V2 receptor (rV2R); test: Agonist transcriptional reporter gene assay, rat V2 receptor; type: cell-based; details: rV2, HEK-293 reporter gene
[10] = target: T4, rat V1a receptor (rV1aR); test: Agonist transcriptional reporter gene assay, rat V1a receptor; type: cell-based; details: rV1a, HEK-293 reporter gene
[11] = Ki calculated from IC50, read-out: Geomean Ki

T1 sequence (P30518 whole entry): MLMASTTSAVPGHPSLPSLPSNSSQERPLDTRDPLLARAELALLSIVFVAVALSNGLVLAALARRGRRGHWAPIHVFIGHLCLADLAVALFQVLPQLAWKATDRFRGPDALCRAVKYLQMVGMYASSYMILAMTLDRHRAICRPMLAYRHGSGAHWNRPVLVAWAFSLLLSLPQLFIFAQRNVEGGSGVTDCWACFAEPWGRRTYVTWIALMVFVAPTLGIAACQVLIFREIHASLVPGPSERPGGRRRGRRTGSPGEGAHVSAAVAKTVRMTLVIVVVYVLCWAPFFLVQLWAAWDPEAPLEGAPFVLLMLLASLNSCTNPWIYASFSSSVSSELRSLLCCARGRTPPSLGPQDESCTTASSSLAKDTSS
T2 sequence (P37288 whole entry): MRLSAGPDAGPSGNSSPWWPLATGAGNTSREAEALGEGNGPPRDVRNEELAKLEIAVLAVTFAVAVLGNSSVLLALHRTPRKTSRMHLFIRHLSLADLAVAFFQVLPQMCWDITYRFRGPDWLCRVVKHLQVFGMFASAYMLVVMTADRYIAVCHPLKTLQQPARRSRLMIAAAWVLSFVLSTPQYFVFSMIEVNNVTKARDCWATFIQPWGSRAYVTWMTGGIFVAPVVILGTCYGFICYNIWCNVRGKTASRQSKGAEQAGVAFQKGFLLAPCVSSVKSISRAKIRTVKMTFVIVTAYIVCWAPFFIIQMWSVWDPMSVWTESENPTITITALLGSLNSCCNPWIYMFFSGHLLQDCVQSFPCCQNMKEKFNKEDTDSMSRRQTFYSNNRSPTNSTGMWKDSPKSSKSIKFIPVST
T3 sequence (Q00788 whole entry): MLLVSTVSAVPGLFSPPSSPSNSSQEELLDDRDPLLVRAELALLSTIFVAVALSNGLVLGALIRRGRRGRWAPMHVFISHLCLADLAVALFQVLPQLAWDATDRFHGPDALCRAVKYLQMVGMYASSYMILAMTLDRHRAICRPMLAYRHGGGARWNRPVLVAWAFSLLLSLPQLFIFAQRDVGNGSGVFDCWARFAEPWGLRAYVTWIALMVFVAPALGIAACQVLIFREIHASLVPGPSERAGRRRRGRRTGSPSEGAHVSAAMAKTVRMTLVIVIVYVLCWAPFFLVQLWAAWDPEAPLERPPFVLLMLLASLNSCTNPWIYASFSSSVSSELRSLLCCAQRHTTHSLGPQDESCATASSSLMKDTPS
T4 sequence (P30560 whole entry): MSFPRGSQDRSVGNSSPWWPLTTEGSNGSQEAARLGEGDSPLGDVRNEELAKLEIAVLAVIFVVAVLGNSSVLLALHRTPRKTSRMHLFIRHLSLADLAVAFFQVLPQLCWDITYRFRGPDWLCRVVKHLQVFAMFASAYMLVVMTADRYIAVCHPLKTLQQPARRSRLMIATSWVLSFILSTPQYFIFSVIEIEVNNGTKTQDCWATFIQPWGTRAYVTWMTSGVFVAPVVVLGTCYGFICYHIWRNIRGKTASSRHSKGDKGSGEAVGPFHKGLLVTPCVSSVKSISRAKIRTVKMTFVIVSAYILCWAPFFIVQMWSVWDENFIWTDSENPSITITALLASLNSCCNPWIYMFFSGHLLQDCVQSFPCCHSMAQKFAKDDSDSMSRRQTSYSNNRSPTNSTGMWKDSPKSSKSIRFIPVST

Compound: Cc1ccccc1C(=O)Nc1ccc(C(=O)N2CCCC(O)c3cc(Cl)ccc32)c(C)c1 (stereo not drawn) [tolvaptan]
- Efficacy Antag [1]: 97%
- Efficacy Antag [2]: 101%
- Efficacy Antag [3]: 102%
- pKi [3]: 8.48
- Efficacy Antag [4]: 26%
- pKi [4]: < 6.47

Compound: NC(=O)CC[C@@H]1NC(=O)[C@H](Cc2ccccc2)NC(=O)[C@H](Cc2ccc(O)cc2)NC(=O)CCSSC[C@@H](C(=O)N2CCC[C@H]2C(=O)N[C@H](CCCN=C(N)N)C(=O)NCC(N)=O)NC(=O)[C@H](CC(N)=O)NC1=O [desmopressin]
- Fluid retention / vascular leak (fluid balance) [5]: decreased the effectiveness of the V1a agonist to the level of AVP
- Mean arterial pressure (MAP) [5]: decreased the effectiveness of the V1a agonist to the level of AVP
- peak Lp with PAF in presence of desmopressin relative to peak Lp with PAF alone ([6]; desmopressin 10 pM for 40 minutes): not increased
- peak Lp with PAF in presence of desmopressin relative to peak Lp with PAF alone ([6]; desmopressin 30 pM for 40 minutes, ±0.4 SEM, n=8): 2.1 fold
- peak Lp with PAF in presence of desmopressin relative to peak Lp with PAF alone ([6]; desmopressin 100 pM for 40 minutes, ±0.9 SEM, n=5): 2.8 fold

Compound: [Pmp1,D-Ile2,Ile4,Arg8]vasopressin-(1-8)-OH [[Pmp1, D-Ile2, Ile4]AVP-(1-8)-OH]
- Efficacy Antag [3]: 105%

Compound: NCCCC[C@H](NC(=O)[C@@H]1CCCN1C(=O)[C@@H]1CSSC[C@H](NC(=O)CNC(=O)CNC(=O)CN)C(=O)N[C@@H](Cc2ccc(O)cc2)C(=O)N[C@@H](Cc2ccccc2)C(=O)N[C@@H](CCC(N)=O)C(=O)N[C@@H](CC(N)=O)C(=O)N1)C(=O)NCC(N)=O [H-Gly3-LVP, terlipressin, terlipressin] (H-GGGCYFQNCPKG-NH2; disulfide 4-9)
- Efficacy [7]: 79%
- pEC50 [7]: 6.92
- Efficacy [8]: 66%
- pEC50 [8]: 6.91

Compound: [Pmp1,D-Ile2,Ile4,Arg8]vasopressin [[Pmp1, D-Ile2, Ile4]AVP]
- Efficacy Antag [3]: 97%

Compound: CCOc1ccc2c(c1)C1(CCC(OCCN3CCOCC3)CC1)C(=O)N2S(=O)(=O)c1ccc(C(=O)NC(C)(C)C)cc1OC (stereo not drawn) [satavaptan]
- Efficacy Antag [1]: 109%
- pKi [1, 11]: 8.82
- Efficacy Antag [2]: 10%
- pKi [2, 11]: < 6.02
- Efficacy Antag [3]: 100%
- pKi [3]: 9.22
- Efficacy Antag [4]: 6%
- pKi [4]: < 6.47

Compound: ornithine vasopressin [[Orn8] Vasopressin, OVP]
- Efficacy [9]: 111%

Compound: Cc1nc2c([nH]1)-c1ccccc1N(C(=O)c1ccc(NC(=O)c3ccccc3-c3ccccc3)cc1)CC2 [conivaptan]
- Efficacy Antag [1]: 92%
- Efficacy Antag [2]: 81%
- Efficacy Antag [3]: 97%
- Efficacy Antag [4]: 99%

Compound: NCCCC[C@H](NC(=O)[C@@H]1CCCN1C(=O)[C@@H]1CSSC[C@H](N)C(=O)N[C@@H](Cc2ccc(O)cc2)C(=O)N[C@@H](Cc2ccccc2)C(=O)N[C@@H](CCC(N)=O)C(=O)N[C@@H](CC(N)=O)C(=O)N1)C(=O)NCC(N)=O [Lysine Vasopressin, LVP, lysine vasopressin]
- Efficacy [7]: 92%
- pEC50 [7]: 9.55
- Efficacy [8]: 98%
- pEC50 [8]: 9.03
- Efficacy [9]: 99%
- pEC50 ([9]; 5 hours): 8.95
- Efficacy [10]: 99%
- pEC50 ([10]; 5 hours): 9.70

Compound: Cc1ccccc1C(=O)Nc1ccc(C(=O)N2CCCC(N(C)C)c3ccccc32)cc1 (stereo not drawn) [mozavaptan]
- Efficacy Antag [1]: 107%
- Efficacy Antag [2]: 85%
- Efficacy Antag [3]: 85%
- Efficacy Antag [4]: 40%

Compound: NC(=O)CC[C@@H]1NC(=O)[C@H](Cc2ccccc2)NC(=O)[C@H](Cc2ccc(O)cc2)NC(=O)[C@@H](N)CSSC[C@@H](C(=O)N2CCC[C@H]2C(=O)N[C@@H](CCCN=C(N)N)C(=O)NCC(N)=O)NC(=O)[C@H](CC(N)=O)NC1=O [Arginine vasopressin, AVP, arginine vasopressin]
- Efficacy [9]: 100%
- Fluid retention / vascular leak (fluid balance) [5]: showed symptoms of vascular leak syndrome; also recorded: less effective
- Mean arterial pressure (MAP) [5]: efficacious in maintaining mean arterial pressure; also recorded: less effective
